Reference: ChEMBL document CHEMBL1240419, “Synthesis and antibacterial activity of 3-O-carbamoyl derivatives of 6,11-di-O-methylerythromycin A: a novel class of acylides” (2010)
Values after ≈ are worked out from the molar mass of the structure shown.

Legend:
Assay type in all cases: functional
Haemophilus influenzae [1] = experiment: Antibacterial activity against ampicillin-resistant Haemophilus influenzae 3300 by broth microdilution method
Streptococcus pneumoniae [2] = experiment: Antibacterial activity against erythromycin-resistant Streptococcus pneumoniae 3469 by broth microdilution method
Staphylococcus aureus [3] = experiment: Antibacterial activity against erythromycin-susceptible Staphylococcus aureus ATCC 25923 by broth microdilution method
Haemophilus influenzae [4] = experiment: Antibacterial activity against ampicillin-susceptible Haemophilus influenzae ATCC 49247 by broth microdilution method
Staphylococcus aureus [5] = experiment: Antibacterial activity against erythromycin, methicillin-resistant Staphylococcus aureus A333 by broth microdilution method
Streptococcus pneumoniae [6] = experiment: Antibacterial activity against erythromycin-susceptible Streptococcus pneumoniae ATCC 49619 by broth microdilution method
Staphylococcus aureus [7] = experiment: Antibacterial activity against erythromycin-resistant, methicillin-susceptible Staphylococcus aureus A265 by broth microdilution method

Compound | MIC (Haemophilus influenzae [1]) | MIC (Streptococcus pneumoniae [2]) | MIC (Staphylococcus aureus [3]) | MIC (Haemophilus influenzae [4]) | MIC (Staphylococcus aureus [5]) | MIC (Streptococcus pneumoniae [6]) | MIC (Staphylococcus aureus [7])
CC[C@H]1OC(=O)[C@H](C)[C@@H](OC(=O)NCCc2ccccc2)[C@H](C)[C@@H](O[C@@H]2O[C@H](C)C[C@H](N(C)C)[C@H]2O)[C@](C)(OC)C[C@@H](C)C(=O)[C@@H](C)[C@@H](OC)[C@]1(C)O | 4 µg/mL (≈ 5.33 µM) | 64 µg/mL (≈ 85.2 µM) | 8 µg/mL (≈ 10.7 µM) | 4 µg/mL (≈ 5.33 µM) | > 64 µg/mL | 4 µg/mL (≈ 5.33 µM) | 8 µg/mL (≈ 10.7 µM)
CC[C@H]1OC(=O)[C@H](C)[C@@H](OC(=O)NCCc2ccc(OC)cc2)[C@H](C)[C@@H](O[C@@H]2O[C@H](C)C[C@H](N(C)C)[C@H]2O)[C@](C)(OC)C[C@@H](C)C(=O)[C@@H](C)[C@@H](OC)[C@]1(C)O | 16 µg/mL (≈ 20.5 µM) | 0.125 µg/mL (≈ 0.16 µM) | 4 µg/mL (≈ 5.12 µM) | 16 µg/mL (≈ 20.5 µM) | > 64 µg/mL | 0.125 µg/mL (≈ 0.16 µM) | 8 µg/mL (≈ 10.2 µM)
CC[C@H]1OC(=O)[C@H](C)[C@@H](OC(=O)NCCc2ccc(OC)c(OC)c2)[C@H](C)[C@@H](O[C@@H]2O[C@H](C)C[C@H](N(C)C)[C@H]2O)[C@](C)(OC)C[C@@H](C)C(=O)[C@@H](C)[C@@H](OC)[C@]1(C)O | 32 µg/mL (≈ 39.5 µM) | 0.25 µg/mL (≈ 0.308 µM) | 2 µg/mL (≈ 2.47 µM) | 32 µg/mL (≈ 39.5 µM) | > 64 µg/mL | 0.125 µg/mL (≈ 0.154 µM) | 8 µg/mL (≈ 9.86 µM)
CC[C@H]1OC(=O)[C@H](C)[C@@H](OC(=O)NCCc2ccc(O)cc2)[C@H](C)[C@@H](O[C@@H]2O[C@H](C)C[C@H](N(C)C)[C@H]2O)[C@](C)(OC)C[C@@H](C)C(=O)[C@@H](C)[C@@H](OC)[C@]1(C)O | 8 µg/mL (≈ 10.4 µM) | 0.25 µg/mL (≈ 0.326 µM) | 4 µg/mL (≈ 5.22 µM) | 8 µg/mL (≈ 10.4 µM) | > 64 µg/mL | 0.25 µg/mL (≈ 0.326 µM) | 2 µg/mL (≈ 2.61 µM)
CC[C@H]1OC(=O)[C@H](C)[C@@H](OC(=O)NCCc2ccc(F)cc2)[C@H](C)[C@@H](O[C@@H]2O[C@H](C)C[C@H](N(C)C)[C@H]2O)[C@](C)(OC)C[C@@H](C)C(=O)[C@@H](C)[C@@H](OC)[C@]1(C)O | 8 µg/mL (≈ 10.4 µM) | 0.125 µg/mL (≈ 0.163 µM) | 2 µg/mL (≈ 2.6 µM) | 8 µg/mL (≈ 10.4 µM) | 32 µg/mL (≈ 41.6 µM) | 0.125 µg/mL (≈ 0.163 µM) | 2 µg/mL (≈ 2.6 µM)
CC[C@H]1OC(=O)[C@H](C)[C@@H](OC(=O)NCCc2ccccc2F)[C@H](C)[C@@H](O[C@@H]2O[C@H](C)C[C@H](N(C)C)[C@H]2O)[C@](C)(OC)C[C@@H](C)C(=O)[C@@H](C)[C@@H](OC)[C@]1(C)O | 16 µg/mL (≈ 20.8 µM) | 0.125 µg/mL (≈ 0.163 µM) | 8 µg/mL (≈ 10.4 µM) | 16 µg/mL (≈ 20.8 µM) | 64 µg/mL (≈ 83.2 µM) | 0.125 µg/mL (≈ 0.163 µM) | 16 µg/mL (≈ 20.8 µM)
CC[C@H]1OC(=O)[C@H](C)[C@@H](OC(=O)NCCc2ccccc2Cl)[C@H](C)[C@@H](O[C@@H]2O[C@H](C)C[C@H](N(C)C)[C@H]2O)[C@](C)(OC)C[C@@H](C)C(=O)[C@@H](C)[C@@H](OC)[C@]1(C)O | 16 µg/mL (≈ 20.4 µM) | 0.125 µg/mL (≈ 0.159 µM) | 4 µg/mL (≈ 5.09 µM) | 8 µg/mL (≈ 10.2 µM) | > 64 µg/mL | 0.125 µg/mL (≈ 0.159 µM) | 1 µg/mL (≈ 1.27 µM)
CC[C@H]1OC(=O)[C@H](C)[C@@H](OC(=O)NCCc2ccccc2Br)[C@H](C)[C@@H](O[C@@H]2O[C@H](C)C[C@H](N(C)C)[C@H]2O)[C@](C)(OC)C[C@@H](C)C(=O)[C@@H](C)[C@@H](OC)[C@]1(C)O | 4 µg/mL (≈ 4.82 µM) | 8 µg/mL (≈ 9.64 µM) | 4 µg/mL (≈ 4.82 µM) | 8 µg/mL (≈ 9.64 µM) | 64 µg/mL (≈ 77.1 µM) | 0.125 µg/mL (≈ 0.151 µM) | 4 µg/mL (≈ 4.82 µM)
CC[C@H]1OC(=O)[C@H](C)[C@@H](O[C@H]2C[C@@](C)(OC)[C@@H](O)[C@H](C)O2)[C@H](C)[C@@H](O[C@@H]2O[C@H](C)C[C@H](N(C)C)[C@H]2O)[C@](C)(O)C[C@@H](C)CN(C)[C@H](C)[C@@H](O)[C@]1(C)O [AZITHROMYCIN] | 4 µg/mL (≈ 5.34 µM) | 4 µg/mL (≈ 5.34 µM) | 0.5 µg/mL (≈ 0.668 µM) | 4 µg/mL (≈ 5.34 µM) | > 64 µg/mL | 0.5 µg/mL (≈ 0.668 µM) | 8 µg/mL (≈ 10.7 µM)
CC[C@H]1OC(=O)[C@H](C)[C@@H](O[C@H]2C[C@@](C)(OC)[C@@H](O)[C@H](C)O2)[C@H](C)[C@@H](O[C@@H]2O[C@H](C)C[C@H](N(C)C)[C@H]2O)[C@](C)(OC)C[C@@H](C)C(=O)[C@H](C)[C@@H](O)[C@]1(C)O [CLARITHROMYCIN] | 8 µg/mL (≈ 10.7 µM) | 2 µg/mL (≈ 2.67 µM) | 0.25 µg/mL (≈ 0.334 µM) | 8 µg/mL (≈ 10.7 µM) | > 64 µg/mL | 0.25 µg/mL (≈ 0.334 µM) | 4 µg/mL (≈ 5.35 µM)
CC[C@H]1OC(=O)[C@H](C)[C@@H](O[C@H]2C[C@@](C)(OC)[C@@H](O)[C@H](C)O2)[C@H](C)[C@@H](O[C@@H]2O[C@H](C)C[C@H](N(C)C)[C@H]2O)[C@](C)(O)C[C@@H](C)C(=O)[C@H](C)[C@@H](O)[C@]1(C)O [ERYTHROMYCIN] | 16 µg/mL (≈ 21.8 µM) | 1 µg/mL (≈ 1.36 µM) | 0.125 µg/mL (≈ 0.17 µM) | 16 µg/mL (≈ 21.8 µM) | > 64 µg/mL | 0.25 µg/mL (≈ 0.341 µM) | 2 µg/mL (≈ 2.73 µM)
